Measurements reported in patent US9751919B2, “Antimicrobial compositions comprising a hyaluronic acid binding peptide and a β-lactam antibiotic” (priority 2012, dated 2017).
Values joined by “and” are separate entries in the source; they are usually repeats but may differ in a detail not shown here. Equal entries are not always repeated. Where two headings read alike, the source gives them in different places. Marks after values point to notes of the source that are not given here.

Columns and labels:
[1] = test system: VRSA; assay: MIC (CLSI broth dilution), agent alone; assay type: cell-based, Staphylococcus aureus; design: unit not given beside the values
Description: (§1) VISA (strains 92, 95 and 96), VRSA (strains 105 and 106) and E. coli (strain 69717) isolates were also tested. One MSSA was used as a control. All MICs were assessed using CLSI guidelines. Also assessed was the activity of cefazolin, ceftriazone, meropenem, and a piperacillin/tazobactam combination antibiotic. Minimum inhibitory concentration (MIC) is the lowest concentration of an antimicrobial that will inhibit the visible growth of a microorganism after incubation.
(§2) Antimicrobial Susceptibility Testing: A custom designed panel of antimicrobials was created. The panel included: PEP35, penicillin, piperacillin/tazobactam, cefazolin, ceftriaxone, meropenem, clarithromycin, clindamycin, gentamicin, amikacin, vancomycin, ciprofloxacin, levofloxacin, moxifloxacin, linezolid, trimethoprim/sulfamethoxazole and doxycycline. These agents were obtained as laboratory grade powders from their respective manufacturers. Stock solutions were prepared and dilutions made as described by the Clinical Laboratory Standards Institute (2005 CLSI). Following two subcultures from frozen stock the MICs of the antimicrobial agents for the isolates were determined by the CLSI 2005 approved broth macrodilution method. Briefly, test tubes containing doubling antibiotic dilutions (2 ml per tube) of cation adjusted Mueller-Hinton broth (eg. for Enterobacteriaceae) with or without lysed horse blood (2-5% V/V) [eg. for S. pneumoniae] were inoculated to achieve a final concentration of approximately 5×10^5 CFU/ml and incubated in ambient air for 24 hours prior to reading. Colony counts were performed periodically to confirm inocula. Quality control was performed every two weeks using a variety of ATCC QC organisms including; S. aureus 29213, E. faecalis 29212, E. coli 25922 and P. aeruginosa 27853. For all antimicrobials as well as PEP35, CLSI criteria were used.
One MSSA was used as a control. All MICs were assessed using CLSI guidelines.

[2] = test system: E. coli; assay: MIC (CLSI broth dilution), agent alone; assay type: cell-based, Escherichia coli; settings: for MIC: agent alone
Description: as §1, §2
One MS SA and ATCC reference strains were used as controls. All MICs were assessed using CLSI guidelines.

[3] = test system: P. aeruginosa; assay: Checkerboard assay (FIC index); assay type: cell-based, Pseudomonas aeruginosa; settings: antibiotic combined with PEP35
Description: (§3) The checkerboard assays were carried out as described by Eliopoulos and Moellering (Chapter 9) in Antibiotic in Laboratory Medicine, Lorian Ed. 1996 as well as Bonapace et al. Diagnostic Microbiology and Infectious Diseases 2002; 44:363-366 and Bonapace et al. Diagnostic Microbiology and Infectious Diseases 2000; 38:43-50. In brief, checkerboard assays were performed in 96 well microtitre trays using an 8-by-8 well configuration. […] 96-well custom designed microtitre plates contained 100 ul/well of cation adjusted Mueller-Hinton broth (eg. for Enterobacteriaceae) with or without lysed horse blood (2-5% V/V) [eg. for S. pneumoniae] and were inoculated to achieve a final concentration of approximately 5×10^5 CFU/ml and incubated in ambient air for 24 hours prior to reading. Colony counts were performed periodically to confirm inocula. Quality control was performed every two weeks using a variety of ATCC QC organisms including; S. pneumoniae 49619, S. aureus 29213, E. faecalis 29212, E. coli 25922 and P. aeruginosa 27853. For all antimicrobials as well as PEP35, CLSI criteria was used.
(§4) The fractional inhibitory concentration index (FIC index) was used to interpret synergy, antagonism or additivity/indifference. FIC index=FIC of drug A+FIC of drug B where:
(§5) The FIC of drug A and drug B is calculated as follows, FIC drug A=MIC of drug A in combination/MIC of drug A alone and FIC of drug B=MIC of drug B in combination/MIC of drug B alone. Synergy is defined as FIC index ≦0.5, additivity/indifference FIC >0.5-4 and antagonism FIC index >4.
(§6) Antimicrobials used included PEP35, cefazolin, ceftriaxone, vancomycin, linezolid, tigecycline and daptomycin versus Gram-positive cocci and PEP35, gentamicin, levofloxacin, piperacillin/tazobactam, meropenem and colistin (Polymyxin E) versus Gram-negative bacilli. These agents were obtained as laboratory grade powders from their respective manufacturers. Stock solutions were prepared and dilutions made as described by the Clinical Laboratory Standards Institute (2005 CLSI).
(§7) Organisms included Gram-positive cocci (2 strains of each): Methicillin-susceptible Staphylococcus aureus (MSSA), community-associated (CA) and healthcare-associated (HA) methicillin-resistant Staphylococcus aureus (MRSA), vancomycin-intermediate Staphylococcus aureus (VISA), vancomycin-resistant Staphylococcus aureus (VRSA), methicillin-resistant Staphylococcus epidermidis (MRSE), Streptococcus pyogenes, Streptococcus agalactiae, Streptococcus pneumoniae, Enterococcus faecalis, Enterococcus faecium and vancomycin-resistant enterococcus (VRE). Gram-negative bacilli tested (2 strains of each) included: E. coli, Pseudomonas aeruginosa, Klebsiella pneumoniae, K. oxytoca, Enterobacter cloacae, P. mirabilis and Stenotrophomonas maltophilia. MIC testing, following two subcultures from frozen stock were determined by the CLSI 2005 approved broth microdilution method.

[4] = test system: K. pneumoniae; assay: Checkerboard assay (FIC index); assay type: cell-based, Klebsiella pneumoniae; settings: antibiotic combined with PEP35
Description: as §3, §4, §5, §6, §7

[5] = test system: K. oxytoca; assay: Checkerboard assay (FIC index); assay type: cell-based, Klebsiella oxytoca; settings: antibiotic combined with PEP35
Description: as §3, §4, §5, §6, §7

[6] = test system: P. mirabilis; assay: Checkerboard assay (FIC index); assay type: cell-based, Proteus mirabilis; settings: antibiotic combined with PEP35
Description: as §3, §4, §5, §6, §7

[7] = test system: S. maltophilia; assay: Checkerboard assay (FIC index); assay type: cell-based, Stenotrophomonas maltophilia; settings: antibiotic combined with PEP35
Description: as §3, §4, §5, §6, §7

Molecule: C[C@@H](O)[C@H]1C(=O)N2C(C(=O)O)=C(S[C@@H]3CN[C@H](C(=O)N(C)C)C3)[C@H](C)[C@H]12 [Meropenem]
- MIC ([1]; VRSA 105, in µg/mL): 32 and 16
- MIC ([1]; VRSA 106): 16 and 16/16
- MIC ([2]; E. coli 69716, in µg/mL): 0.03
- MIC ([2]; E. coli 70752, in µg/mL): 0.03
- Avg ΣFIC (range) ([3]; P. aeruginosa 70849): 1.21 (1.03-1.5)
- Avg ΣFIC (range) ([3]; P. aeruginosa 71841): 1.10 (1.0-1.25)
- Avg ΣFIC (range) ([4]; K. pneumoniae 70508): 1.19 (1.03-1.5)
- Avg ΣFIC (range) ([4]; K. pneumoniae 77081): 1.21 (1.03-1.5)
- Avg ΣFIC (range) ([5]; K. oxytoca 75316): 1.1 (1.0-1.25)
- Avg ΣFIC (range) ([5]; K. oxytoca 76874): 0.80 (0.53-1.12)
- Avg ΣFIC (range) ([6]; P. mirabilis 80267): >1*
- Avg ΣFIC (range) ([6]; P. mirabilis 81569): >1*
- Avg ΣFIC (range) ([7]; S. maltophilia 73062): 0.77 (0.5-1.03)
- Avg ΣFIC (range) ([7]; S. maltophilia 77424): 1.05 (0.75-1.25)

Molecule: CN[C@H](CC(C)C)C(=O)N[C@H]1C(=O)N[C@@H](CC(N)=O)C(=O)N[C@H]2C(=O)N[C@H]3C(=O)N[C@H](C(=O)N[C@H](C(=O)O)c4cc(O)cc(O)c4-c4cc3ccc4O)[C@H](O)c3ccc(c(Cl)c3)Oc3cc2cc(c3O[C@@H]2O[C@H](CO)[C@@H](O)[C@H](O)[C@H]2O[C@H]2C[C@](C)(N)[C@H](O)[C@H](C)O2)Oc2ccc(cc2Cl)[C@H]1O [Vancomycin]
- MIC ([1]; VRSA 105): 512/512/512
- MIC ([1]; VRSA 105, listed as VAN, in µg/mL): 512
- MIC ([1]; VRSA 106): 512/512/512
- MIC ([1]; VRSA 106, listed as VAN, in µg/mL): 512

Molecule: Cc1nnc(SCC2=C(C(=O)O)N3C(=O)[C@@H](NC(=O)Cn4cnnn4)[C@H]3SC2)s1 [Cefazolin]
- MIC ([1]; VRSA 105): 128/128/128/
- MIC ([1]; VRSA 105, in µg/mL): 128 and 256
- MIC ([1]; VRSA 106): 256/256
- MIC ([1]; VRSA 106, in µg/mL): 256 and 128
- MIC ([2]; E. coli 69716, in µg/mL): 2
- MIC ([2]; E. coli 70752, in µg/mL): 128
- Cefazolin (MIC) ([2]; E. coli, antibiotic alone, two values in cell): 2/2
- MIC ([2]; Escherichia coli, E. coli control, read-out: MIC): 2 mg/L

Molecule: KKKKKLQLQLNLIKKKVQVSVVVVRRH (Reordered human peptide sequence) [Scrambled PEP35]
- MIC ([1]; VRSA 105, in µg/mL): 64
- MIC ([1]; VRSA 106, in µg/mL): 128
- MIC ([2]; E. coli 69716, in µg/mL): 8
- MIC ([2]; E. coli 70752, in µg/mL): 8
- activity (in words) ([2]; vs E. coli): active

Molecule: LKQKIKHVVKLKVVVKLRSQLVKRKQN (listed as Mus sp.) [PEP35]
- MIC ([1]; VRSA 105, in µg/mL): 128 and 64
- MIC ([1]; VRSA 106): 128 and 128/128/128
- MIC ([2]; E. coli 69716, in µg/mL): 128
- MIC ([2]; E. coli 70752, in µg/mL): 128
- MIC ([2]; E. coli control): 64 mg/L
- PEP35 (MIC) ([2]; E. coli, peptide alone): 64 mg/L

Molecule: piperacillin/tazobactam
- MIC ([1]; VRSA 105, in µg/mL): 64
- MIC ([1]; VRSA 106, in µg/mL): 64
- MIC ([2]; E. coli 69716, in µg/mL): 2
- MIC ([2]; E. coli 69716, listed as Piperacillin-Tazobactam, in µg/mL): 4 and 2
- MIC ([2]; E. coli 70752): 4/4
- MIC ([2]; E. coli 70752, in µg/mL): 8
- Avg ΣFIC (range) ([3]; P. aeruginosa 70849): 0.92 (0.62-1.12)
- Avg ΣFIC (range) ([3]; P. aeruginosa 71841): 0.88 (0.56-1.12)
- Avg ΣFIC (range) ([4]; K. pneumoniae 70508): 0.93 (0.62-1.12)
- Avg ΣFIC (range) ([4]; K. pneumoniae 77081): 1.05 (0.75-1.25)
- Avg ΣFIC (range) ([5]; K. oxytoca 75316): 0.93 (0.62-1.12)
- Avg ΣFIC (range) ([5]; K. oxytoca 76874): 0.83 (0.53-1.12)
- Avg ΣFIC (range) ([6]; P. mirabilis 80267): >0.5*
- Avg ΣFIC (range) ([6]; P. mirabilis 81569): >0.5*
- Avg ΣFIC (range) ([7]; S. maltophilia 73062): 0.98 (0.62-1.25)
- Avg ΣFIC (range) ([7]; S. maltophilia 77424): 1.04 (0.75-1.25)

Molecule: CO/N=C(\C(=O)N[C@@H]1C(=O)N2C(C(=O)O)=C(CSc3nc(=O)c(=O)[nH]n3C)CS[C@H]12)c1csc(N)n1 [Ceftriaxone]
- MIC ([1]; VRSA 105): 2048 and 1024/1024
- MIC ([1]; VRSA 106): 1024 and 2048/2048
- MIC ([1]; VRSA 106, listed as CEFTRIAXONE): 1024/1024
